Source: patent US6866872B1, “Withania somnifera Dunal extracts for increasing male sperm count” (Nippon Shinyaku Co., Ltd., priority 1999, dated 2005)

How the values were obtained:
SD rats = test: Test Example 1: genital organ weights after ethynylestradiol dosing for 2 weeks; assay type: in vivo, rat; settings: ethynylestradiol 3 mg/kg orally once daily for 2 weeks, n = 8
Description: SD rats aged 11 weeks (in groups of 8) were orally dosed with 3 mg/kg of the endocrine disturbing chemical ethynylestradiol suspended in 0.5% sodium carboxymethylcellulose (CMC) solution (ethynylestradiol 0.6 mg/mL) or, as control, 5 mL/kg of 0.5% CMC solution once daily in the morning for 2 weeks, and after the administration course, the testis, epididymis, prostate and seminal vesicle were respectively weighed.
Rat husbandry conditions: room temperature 21˜25° C., humidity 45˜60%, artificial lighting 12 hrs (7:00 a.m.˜7:00 p.m.), ventillation frequency 15/hr, solid food (CE-2, CLEA Japan Inc.) and drinking water ad libitum.

Slc:SD rats = test: Test Example 2: genital organ weights 1 week after ethynylestradiol dosing for 10 days; assay type: in vivo, rat; settings: ethynylestradiol 3 mg/kg orally once daily for 10 days, weighed 1 week after the course, n = 10
Description: Slc:SD rats aged 10 weeks (in groups of 10) were orally dosed with 3 mg/kg of the endocrine disturbing chemical ethynylestradiol suspended in 0.5% sodium carboxymethylcellulose (CMC) solution (ethynylestradiol 0.3 mg/mL) or, as control, 10 mL/kg of 0.5% CMC solution once daily in the morning for 10 days, and at 1 week after the administration course, the testis, epididymis, prostate and seminal vesicle were respectively weighed.
Rat husbandry conditions: room temperature 21˜25° C., humidity 45˜60%, artificial lighting 12 hrs (7:00 a.m.˜7:00 p.m.), ventilation frequency 15/hr, solid food (CE-2, CLEA Japan Inc.) and drinking water ad libitum.

[1] = tested on: rats with the genital organs impaired by ethynylestradiol; settings: rat, in vivo
Description: Using rats with the genital organs impaired by ethynylestradiol as in Test Example 2, the sperm count and motile sperm rate were investigated.
From the right epididymis, the caudal epididymis was excised and weighed with Sartorius electronic balance LC620-S. The caudal epididymis was placed in a sperm collection vial containing 5 mL of BSA-Hanks solution and cut 3 times to cause the sperm to swim out. A 0.05 mL portion of the sperm fluid was sampled and diluted with 0.95 mL of BSA-Hanks solution for use as a diluted sperm fluid. The number of non-motile sperms in the diluted sperm fluid was determined with Thoma's hemocytometer. After this counting of non-motile sperms, the vessel containing the diluted sperm fluid was immersed in hot water and, after return to room temperature, the sperms were counted with the hemocytometer. […] Using the measured values, the motile sperm rate was calculated by means of the following equation [1]. Motile sperm rate (%)=(number of sperms−number of non-motile sperms)/number of sperms×100 [1] (2) Method for Determination of Sperm Count
The caudal epididymis in the sperm collection vial used in the above procedure (1) was further cut to release sperms and the fluid in the vial was filtered through a nylon-mesh sieve. The stock filtrate, 0.1 mL, was diluted with 1.9 mL of formalinized saline and the number of sperms was determined with Thoma's hemocytometer. When the sperm population in the sperm sample was considered to be too small (low turbidity), the stock sperm fluid was not diluted but the vessel was directly immersed in hot water and, after reutrn to room temperature, the number of sperms was determined. Moreover, the number of sperms (sperm count) per caudal epididymis was calculated using the number of sperms determined and the dilution factor by means of the equation given below, with the value per caudal epididymis unit weight (g) being taken as the sperm count/caudal epididymis and the value per epididymis as the sperm count/epididymis.
Sperm count=measured number of sperms×dilution factor Number of sperms/caudal epididymis=number of sperms determined×dilution factor/weight of the caudal epididymis epididymis (g) Number of sperms/epididymis=(number of sperms/caudal epididymis)×weight of epididymis (g)

SMILES: C#C[C@]1(O)CC[C@H]2[C@@H]3CCc4cc(O)ccc4[C@H]3CC[C@@]21C [Ethynylestradiol, ethynylestradiol]
- Epididymis weight (SD rats): 118 mg/100 g body weight
- Prostate weight (SD rats): 77.4 mg/100 g body weight
- Seminal vesicle weight (SD rats): 88.1 mg/100 g body weight
- Testis weight (SD rats): 705 mg/100 g body weight
- Epididymis weight (Slc:SD rats): 154.5 ± mg/100 gBW
- Prostate weight (Slc:SD rats): 102.3 ± mg/100 gBW
- Seminal vesicle weight (Slc:SD rats): 170.0 ± mg/100 gBW
- Testis weight (Slc:SD rats): 731.3 ± mg/100 gBW
- Caudal epididymis (weight, g) [1]: 0.076 g
- Motile sperm rate [1]: 40.6 ± %
- Sperm count [1]: 13.0 ± x10^6
- Sperm count/caudal epididymis [1]: 160.2 ± x10^6
- Sperm count/epididymis [1]: 88.8 ± x10^6
